According to patent US20240409585A1, “MACROCYCLIC IMMUNOMODULATORS” (priority 2021, published 2024):
Numbered stars: 1 amine (or outer) side, 2 acyl side, 3 side chain; on linkers, the order of the positions; unused ones are H or OH. Bridge positions count the residues as written; N and C are the ends. Square brackets hold non-standard residues; d marks the D form. Peptide text beside a SMILES is read from it. * marks the point of attachment. X26 = O=C([C@H](Cc1ccc(-c2cccc(S(=O)(=O)N3CCOCC3)c2)cc1)N[*:1])[*:2]; Bip(4'-COOH) = N[C@@H](Cc1ccc(-c2ccc(C(=O)O)cc2)cc1)C(=O)O; Bip(4'-NHAc) = CC(=O)Nc1ccc(-c2ccc(C[C@H](N)C(=O)O)cc2)cc1; X17 = Nc1ccc(-c2cccc(C[C@H](N[*:1])C(=O)[*:2])c2)cn1; Phe(3-CF3) = N[C@@H](Cc1cccc(C(F)(F)F)c1)C(=O)O; Ala(morpholin-4-yl) = N[C@@H](CN1CCOCC1)C(=O)O; Phe(4-COOH) = N[C@@H](Cc1ccc(C(=O)O)cc1)C(=O)O; Bip = N[C@@H](Cc1ccc(-c2ccccc2)cc1)C(=O)O; Phe(4-NH2) = Nc1ccc(C[C@H](N)C(=O)O)cc1; Abu(3R-NH2) = C[C@@H](N)[C@H](N)C(=O)O; Phe(3-Me) = Cc1cccc(C[C@H](N)C(=O)O)c1; Val(3-OH) = CC(C)(O)[C@H](N)C(=O)O; hPhe = N[C@@H](CCc1ccccc1)C(=O)O; Nva(5-OH) = N[C@@H](CCCO)C(=O)O; Cha = N[C@@H](CC1CCCCC1)C(=O)O; Carboxymethyl = O=C(O)C*; NMeA = CN[C@@H](C)C(=O)O; Orn = NCCC[C@H](N)C(=O)O; Dab = NCC[C@H](N)C(=O)O

The compounds below were run against T1, Alexa fluor-647 labeled human PD-L1-Ig binding to Jurkat cell line over-expressing human PD-1 (Homo sapiens, UniProt Q15116) (assay: Jurkat-PD-1 Cell Binding High-Content Screening Assay (CBA): Method 3 (Alexa fluor-647 labeled PD-L1-Ig)). Details: Jurkat-PD-1 cells, Alexa fluor-647 labeled PD-L1-Ig 177 nM; head μM; read-out: CBA Method 3 μM.
T1 construct: expressed in transfected cells; host or cells: Jurkat
T1 sequence (Q15116 25-288): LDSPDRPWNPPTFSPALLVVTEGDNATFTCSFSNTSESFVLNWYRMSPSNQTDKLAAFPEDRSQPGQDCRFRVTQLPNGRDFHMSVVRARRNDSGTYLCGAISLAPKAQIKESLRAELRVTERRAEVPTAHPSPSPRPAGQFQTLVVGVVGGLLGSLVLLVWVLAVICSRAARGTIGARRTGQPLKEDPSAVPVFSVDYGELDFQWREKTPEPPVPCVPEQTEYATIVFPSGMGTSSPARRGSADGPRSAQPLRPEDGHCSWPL
Outline: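 Readout by high-content imaging of PFA-fixed, Hoechst-stained cells after 1 h with 177 nM (final) Alexa fluor-647 PD-L1-Ig. Compound was added first to hPD-1 Jurkat cells in RPMI plus 10% FCS for 2 h at 37 °C.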
Cc1cccc(C[C@@H]2NC(=O)[C@H](CC(=O)O)NC(=O)[C@H](Cc3ccc(OCC(=O)O)cc3)NC(=O)[C@H](CC3CCCCC3)NC(=O)CSC[C@@H](C(=O)N[C@@H](CCN)C(N)=O)NC(=O)[C@H](CCCN)NC(=O)[C@H](C(C)C)NC(=O)[C@H](Cc3ccc(N)cc3)NC(=O)[C@H](CCN)NC(=O)[C@@H](CC(C)C)NC(=O)[C@H](C)N(C)C(=O)[C@H](CCC(N)=O)NC(=O)[C@H](Cc3ccc(-c4ccccc4)cc3)NC(=O)[C@H](Cc3ccc(C(=O)O)cc3)NC2=O)c1 [Example 5189] ({CH2CO}-[Cha]Y(Carboxymethyl)D[Phe(3-Me)][Phe(4-COOH)][Bip]Q[NMeA][dL][Dab][Phe(4-NH2)]V[Orn]C[Dab]-NH2; thioether N-14) gave an IC50 of 0.33 µM.
Compound Cc1cccc(C[C@@H]2NC(=O)[C@H](CC(=O)O)NC(=O)[C@H](Cc3ccc(OCC(=O)O)cc3)NC(=O)[C@H](CC3CCCCC3)NC(=O)CSC[C@@H](C(=O)N[C@@H](CCN)C(N)=O)NC(=O)[C@H](CCC(=O)O)NC(=O)[C@H](C(C)C)NC(=O)[C@H](CC3CCCCC3)NC(=O)[C@H](CCN)NC(=O)[C@@H](CC(C)C)NC(=O)[C@H](C)N(C)C(=O)[C@H](CCC(N)=O)NC(=O)[C@H](Cc3ccc(-c4ccccc4)cc3)NC(=O)[C@H](CCc3ccccc3)NC2=O)c1 [Example 5214] ({CH2CO}-[Cha]Y(Carboxymethyl)D[Phe(3-Me)][hPhe][Bip]Q[NMeA][dL][Dab][Cha]VEC[Dab]-NH2; thioether N-14) has an IC50 of 0.03 µM.
In the case of Cc1cccc(C[C@@H]2NC(=O)[C@H](CC(=O)O)NC(=O)[C@H](Cc3ccc(C(=O)O)cc3)NC(=O)[C@H](C)NC(=O)CSC[C@@H](C(=O)N[C@@H](CCN)C(N)=O)NC(=O)[C@H](CCC(=O)O)NC(=O)[C@H](C(C)C)NC(=O)[C@H](CC3CCCCC3)NC(=O)[C@H](CCN)NC(=O)[C@@H](CC(C)C)NC(=O)[C@H](C)N(C)C(=O)[C@H](Cc3ccc(OCC(=O)O)cc3)NC(=O)[C@H](Cc3ccc(-c4ccccc4)cc3)NC(=O)[C@H](Cc3ccc(C(=O)O)cc3)NC2=O)c1 [Example 5138] ({CH2CO}-A[Phe(4-COOH)]D[Phe(3-Me)][Phe(4-COOH)][Bip]Y(Carboxymethyl)[NMeA][dL][Dab][Cha]VEC[Dab]-NH2; thioether N-14), the IC50 is reported as 0.03 µM.
Work on Cc1cccc(C[C@@H]2NC(=O)[C@H](CC(=O)O)NC(=O)[C@H](Cc3ccc(-c4ccc(C(=O)O)cc4)cc3)NC(=O)[C@H]([C@@H](C)O)NC(=O)CSC[C@@H](C(=O)N[C@@H](CCN)C(N)=O)NC(=O)[C@H](Cc3cnc[nH]3)NC(=O)[C@H](C(C)(C)O)NC(=O)[C@H](CC3CCCCC3)NC(=O)[C@H](CCN)NC(=O)[C@@H](CC(C)C)NC(=O)[C@H](C)N(C)C(=O)[C@H](Cc3ccc(C(=O)O)cc3)NC(=O)[C@H](Cc3ccc(-c4ccccc4)cc3)NC(=O)[C@H](Cc3ccc(-c4ccc(C(=O)O)cc4)cc3)NC2=O)c1 [Example 5131] ({CH2CO}-T[Bip(4'-COOH)]D[Phe(3-Me)][Bip(4'-COOH)][Bip][Phe(4-COOH)][NMeA][dL][Dab][Cha][Val(3-OH)]HC[Dab]-NH2; thioether N-14) yielded an IC50 of 0.19 µM.
Compound Cc1cccc(C[C@@H]2NC(=O)[C@H](CC(=O)O)NC(=O)[C@H](Cc3ccc(OCC(=O)O)cc3)NC(=O)[C@H](CN3CCOCC3)NC(=O)CSC[C@@H](C(=O)N[C@@H](CCN)C(N)=O)NC(=O)[C@H](CCCN)NC(=O)[C@H](C(C)C)NC(=O)[C@H](CC3CCCCC3)NC(=O)[C@H](CCN)NC(=O)[C@@H](CC(C)C)NC(=O)[C@H](C)N(C)C(=O)[C@H](CCC(N)=O)NC(=O)[C@H](Cc3ccc(-c4ccccc4)cc3)NC(=O)[C@H](Cc3ccc(-c4cccc(S(=O)(=O)N5CCOCC5)c4)cc3)NC2=O)c1 [Example 5107] ({CH2CO}-[Ala(morpholin-4-yl)]Y(Carboxymethyl)D[Phe(3-Me)][X26][Bip]Q[NMeA][dL][Dab][Cha]V[Orn]C[Dab]-NH2; thioether N-14) has an IC50 of 0.33 µM.
CC(=O)Nc1ccc(-c2ccc(C[C@@H]3NC(=O)[C@H](Cc4cccc(C)c4)NC(=O)[C@H](CC(=O)O)NC(=O)[C@H](Cc4ccc(-c5ccc(C(=O)O)cc5)cc4)NC(=O)[C@H](CN4CCOCC4)NC(=O)CSC[C@@H](C(=O)N[C@@H](CCN)C(N)=O)NC(=O)[C@H](CCC(=O)O)NC(=O)[C@H](C(C)C)NC(=O)[C@H](CC4CCCCC4)NC(=O)[C@H](CC(N)=O)NC(=O)[C@@H](CC(C)C)NC(=O)[C@H](C)N(C)C(=O)[C@H](Cc4ccc(OCC(=O)O)cc4)NC(=O)[C@H](Cc4ccc(-c5ccccc5)cc4)NC3=O)cc2)cc1 [Example 5127] ({CH2CO}-[Ala(morpholin-4-yl)][Bip(4'-COOH)]D[Phe(3-Me)][Bip(4'-NHAc)][Bip]Y(Carboxymethyl)[NMeA][dL]N[Cha]VEC[Dab]-NH2; thioether N-14) was tested, and the IC50 was 0.02 µM.
CC(C)C[C@H]1NC(=O)[C@H](C)N(C)C(=O)[C@H](CCC(N)=O)NC(=O)[C@H](Cc2ccc(-c3ccccc3)cc2)NC(=O)[C@H](CCc2ccccc2)NC(=O)[C@H](Cc2cccc(C(F)(F)F)c2)NC(=O)[C@H](CC(=O)O)NC(=O)[C@H](Cc2ccc(OCC(=O)O)cc2)NC(=O)[C@H](CC2CCCCC2)NC(=O)CSC[C@@H](C(=O)N[C@@H](CCN)C(N)=O)NC(=O)[C@H](CCC(=O)O)NC(=O)[C@H](C(C)C)NC(=O)[C@H](CC2CCCCC2)NC(=O)[C@H](CCN)NC1=O [Example 5213] ({CH2CO}-[Cha]Y(Carboxymethyl)D[Phe(3-CF3)][hPhe][Bip]Q[NMeA][dL][Dab][Cha]VEC[Dab]-NH2; thioether N-14) gave an IC50 of 0.33 µM.
Cc1cccc(C[C@@H]2NC(=O)[C@H](CC(=O)O)NC(=O)[C@H](Cc3ccc(OCC(=O)O)cc3)NC(=O)[C@H](CN3CCOCC3)NC(=O)CSC[C@@H](C(=O)N[C@@H](CCN)C(N)=O)NC(=O)[C@H](CCCO)NC(=O)[C@H](C(C)C)NC(=O)[C@H](CC3CCCCC3)NC(=O)[C@H](CCN)NC(=O)[C@@H](CC(C)C)NC(=O)[C@H](C)N(C)C(=O)[C@H](CCC(N)=O)NC(=O)[C@H](Cc3ccc(-c4ccccc4)cc3)NC(=O)[C@H](Cc3cccc(-c4ccc(N)nc4)c3)NC2=O)c1 [Example 5100] ({CH2CO}-[Ala(morpholin-4-yl)]Y(Carboxymethyl)D[Phe(3-Me)][X17][Bip]Q[NMeA][dL][Dab][Cha]V[Nva(5-OH)]C[Dab]-NH2; thioether N-14) gave an IC50 of 0.27 µM.
For Cc1cccc(C[C@@H]2NC(=O)[C@H](CC(=O)O)NC(=O)[C@H](Cc3ccc(C(=O)O)cc3)NC(=O)[C@H](CN3CCOCC3)NC(=O)CSC[C@@H](C(=O)N[C@@H](CCN)C(N)=O)NC(=O)[C@H](CCC(N)=O)NC(=O)[C@H](C(C)C)NC(=O)[C@H](CC3CCCCC3)NC(=O)[C@H](CCN)NC(=O)[C@@H](CC(C)C)NC(=O)[C@H](C)N(C)C(=O)[C@H](Cc3ccc(C(=O)O)cc3)NC(=O)[C@H](Cc3ccc(-c4ccccc4)cc3)NC(=O)[C@H](Cc3ccc(C(=O)O)cc3)NC2=O)c1 [Example 5260] ({CH2CO}-[Ala(morpholin-4-yl)][Phe(4-COOH)]D[Phe(3-Me)][Phe(4-COOH)][Bip][Phe(4-COOH)][NMeA][dL][Dab][Cha]VQC[Dab]-NH2; thioether N-14), the IC50 was 0.09 µM.

Same assay, conditions: Jurkat-PD-1 cells, Alexa fluor-647 labeled PD-L1-Ig 177 nM; nM; read-out: CBA Method 3
Cc1cccc(C[C@@H]2NC(=O)[C@H](CC(=O)O)NC(=O)[C@H](Cc3ccc(OCC(=O)O)cc3)NC(=O)[C@H](Cc3cccc(C(F)(F)F)c3)NC(=O)CSC[C@@H](C(=O)N[C@@H](CCN)C(N)=O)NC(=O)[C@H](CCCN)NC(=O)[C@H](C(C)C)NC(=O)[C@H](CC3CCCCC3)NC(=O)[C@H](CCN)NC(=O)[C@@H](CC(C)C)NC(=O)[C@H](C)N(C)C(=O)[C@H](CCC(N)=O)NC(=O)[C@H](Cc3ccc(-c4ccccc4)cc3)NC(=O)[C@H](Cc3ccc(C(=O)O)cc3)NC2=O)c1 [Example 5276] ({CH2CO}-[Phe(3-CF3)]Y(Carboxymethyl)D[Phe(3-Me)][Phe(4-COOH)][Bip]Q[NMeA][dL][Dab][Cha]V[Orn]C[Dab]-NH2; thioether N-14) showed an IC50 of 0.0011 µM.
In the case of CC[C@H](C)[C@@H]1NC(=O)CSC[C@@H](C(=O)N[C@@H](CCN)C(N)=O)NC(=O)[C@H](CCCN)NC(=O)[C@H](C(C)C)NC(=O)[C@H](CC2CCCCC2)NC(=O)[C@H](CCN)NC(=O)[C@@H](CC(C)C)NC(=O)[C@H](C)N(C)C(=O)[C@H](CCC(N)=O)NC(=O)[C@H](Cc2ccc(-c3ccccc3)cc2)NC(=O)[C@H](Cc2ccc(C(=O)O)cc2)NC(=O)[C@H](Cc2cccc(C)c2)NC(=O)[C@H](CC(=O)O)NC(=O)[C@H](Cc2ccc(OCC(=O)O)cc2)NC1=O [Example 5268] ({CH2CO}-IY(Carboxymethyl)D[Phe(3-Me)][Phe(4-COOH)][Bip]Q[NMeA][dL][Dab][Cha]V[Orn]C[Dab]-NH2; thioether N-14), the IC50 is reported as 0.0053 µM.
Compound CC(C)C[C@H]1NC(=O)[C@H](C)N(C)C(=O)[C@H](CCC(N)=O)NC(=O)[C@H](Cc2ccc(-c3ccccc3)cc2)NC(=O)[C@H](CCc2ccccc2)NC(=O)[C@H](Cc2cccc(C(F)(F)F)c2)NC(=O)[C@H](CC(=O)O)NC(=O)[C@H](CCC(N)=O)NC(=O)[C@H]([C@@H](C)N)NC(=O)CSC[C@@H](C(=O)N[C@@H](CCN)C(N)=O)NC(=O)[C@H](CCCN)NC(=O)[C@H](C(C)C)NC(=O)[C@H](CC2CCCCC2)NC(=O)[C@H](CCN)NC1=O [Example 5247] ({CH2CO}-[Abu(3R-NH2)]QD[Phe(3-CF3)][hPhe][Bip]Q[NMeA][dL][Dab][Cha]V[Orn]C[Dab]-NH2; thioether N-14) has an IC50 of 0.0017 µM.
CC(C)C[C@H]1NC(=O)[C@H](C)N(C)C(=O)[C@H](CCC(N)=O)NC(=O)[C@H](Cc2ccc(-c3ccccc3)cc2)NC(=O)[C@H](CCc2ccccc2)NC(=O)[C@H](Cc2cccc(C(F)(F)F)c2)NC(=O)[C@H](CC(=O)O)NC(=O)[C@H](Cc2ccc(O)cc2)NC(=O)[C@H]([C@@H](C)N)NC(=O)CSC[C@@H](C(=O)N[C@@H](CCN)C(N)=O)NC(=O)[C@H](CCC(N)=O)NC(=O)[C@H](C(C)C)NC(=O)[C@H](CC2CCCCC2)NC(=O)[C@H](CCN)NC1=O [Example 5242] ({CH2CO}-[Abu(3R-NH2)]YD[Phe(3-CF3)][hPhe][Bip]Q[NMeA][dL][Dab][Cha]VQC[Dab]-NH2; thioether N-14) gave an IC50 of 0.0021 µM.
